From US9321743B2, “Compositions and methods of inhibiting N-acylethanolamine-hydrolyzing acid amidase” (The Regents of the University of California, priority 2007, dated 2016) come the findings set out here.

Experiment [1] deals with carrageenan-induced inflammation. Kind of experiment: mouse carrageenan model (carrageenan-soaked polyethylene sponge implanted under the dorsal skin). In kind it is in vivo. The text has this: The contribution of endogenous PEA to inflammatory processes remains largely undefined. […] The inventors have previously shown that the proinflammatory phorbol ester, 12-O-tetradecanoylphorbol-13-acetate (TPA), decreases dermal PEA levels following skin inflammation. These findings raised the possibility that reduced PEA levels during inflammation may allow for the progression of the inflammatory process. To further explore this idea, the inventors evaluated the effects of carrageenan-induced inflammation on PEA levels in the mouse. Polyethylene sponges injected with vehicle (10% DMSO in saline) or carrageenan (1%) were surgically implanted under the dorsal skin of mice. After 3 days, the mice were sacrificed and the sponges were removed and analyzed for inflammatory cell infiltration and cellular PEA content. In carrageenan-treated animals the number of infiltrating cells (primarily neutrophils) increased by approximately 3-fold as can be taken from FIG. 2. Here, surgical implantation of vehicle (v) or carrageenan (c) soaked sponges under the dorsal skin of Swiss mice for 3 days (A) increased the number of infiltrating neutrophils and (B) decreased the levels of endogenous cellular PEA. (C) Time course of the effects of vehicle (open symbols) or carrageen (closed symbols) on PEA levels **P<0.01 or ***P<0.001 vs. V, t-test or ANOVA, followed by Dunnett's post-hoc as appropriate (n=6).
As a first step in determining the role of endogenous PEA in inflammation, the inventors examined the effects of local application of PEA on inflammatory responses. Polyethylene sponges injected with vehicle or carrageenan (1%) and either vehicle (10% DMSO in saline) or various doses of PEA (0.1-50 μg) were surgically implanted under the dorsal skin of mice. After 3 days, the mice were killed and the sponges were removed and analyzed for cell infiltration. […] Here panels (A-B) depict the effect of vehicle (open bars), carrageenan (filled bars) or PEA (0.1-50 μg) in Swiss mice, black bars; PEA (50 μg in PPAR-α−/− mice), scored as the number of infiltrating inflammatory cells into a polyethylene sponge (size) injected with vehicle, carrageenan (1%) or PEA, implanted under the dorsal skin of (A) Swiss mice or (B) wildtype C57BL6 mice (+/+) or PPAR-α/− mice for 3 days. **P<0.01 or ***P<0.001 vs. V, ## P<0.01 vs. carrageenan control. ANOVA, followed by Tukey's or Dunnett's post-hoc as appropriate (n=6). Thus, it should be appreciated that peripheral inflammation is associated with decreased PEA synthesis in infiltrating cells, and that restoring PEA levels by exogenous PEA administration reduces inflammatory responses.
Polyethylene sponges (1 cm^3) were injected with either vehicle (100 μl of water:DMSO (9:1), V, open bars), carrageenan (1%, filled bars), URB597 (30 μg), and URB783 (30 μg) as indicated. **P<0.01 or ***P<0.001 vs. V, ## P<0.01 vs. carrageenan control. ANOVA, followed by Tukey's or Dunnett's post-hoc as appropriate (n=5-7).

Experiment [2] deals with recombinant NAAA (Rattus norvegicus (Rat), UniProt Q5KTC7). As to the kind of experiment: NAAA assay. In kind it is biochemical. The note with it: read-out: IC50 of NAAA inhibition. How it is done: Recombinant NAAA or native rat lung NAAA was incubated at 37° C. for 30 min in 0.2 ml of sodium hydrogen phosphate buffer (50 mM, pH 5.0) containing 0.1% Triton X-100, 3 mM dithiothreitol (DTT) and […] heptadecenoylethanolamide as substrate. The reaction was terminated by the addition of 0.2 ml cold methanol containing […] of heptadecanoic acid (HDA, NuChek Prep, Elysian, Minn.). Samples were analyzed by LC/MS (liquid chromatography/mass spectrometry). Heptadecanoic acid was eluted on an XDB Eclipse C18 column isocratically at 2.2 ml/min for 1 min with a solvent mixture of 95% methanol and 5% water, both containing 0.25% acetic acid and 5 mM ammonium acetate. The column temperature was 50° C. ESI was in the negative mode, capillary voltage was 4 kV, and fragmentor voltage was 100 V. N2 was used as drying gas at a flow rate of 13 liters/min and a temperature of 350° C. Nebulizer pressure was set at 60 psi. [M-H]-was monitored in SIM mode using heptadecanoic acid as internal standard. Calibration curves were generated using commercial heptadecenoic acid (Nu-Chek Prep, m/z=267).
Chain of recombinant NAAA (Q5KTC7 34-362): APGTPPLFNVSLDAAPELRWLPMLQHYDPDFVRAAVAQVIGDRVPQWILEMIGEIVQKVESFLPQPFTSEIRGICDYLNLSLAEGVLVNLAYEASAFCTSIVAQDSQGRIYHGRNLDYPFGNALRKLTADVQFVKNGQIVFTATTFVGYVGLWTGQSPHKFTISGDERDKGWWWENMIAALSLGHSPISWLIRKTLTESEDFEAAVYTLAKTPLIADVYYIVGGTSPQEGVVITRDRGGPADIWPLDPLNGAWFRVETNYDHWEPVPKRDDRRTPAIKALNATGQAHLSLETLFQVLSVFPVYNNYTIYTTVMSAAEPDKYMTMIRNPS

In experiment [3] the test system is spinal cord injury. As to the kind of experiment: spinal cord injury (SCI) model, extradural clip compression. In kind it is in vivo, mouse. The note with it: spinal cord tissue 24 hours after SCI, local administration after SCI. Here is the method: In the spinal cord injury (SCI) model, extradural compression of a section of the spinal cord exposed via a four-level T5-T8 aminectomy, caused a substantial increase in iNOS expression in the inflammatory cells as well as in nuclei of […] in the white and gray matter of the spinal cord tissues collected from mice 24 hours after SCI. No iNOS staining was detected in the spinal cord obtained from sham mice. […] A typical experimental protocol is described below.
Mice were randomized into 4 groups (n=40 animals/group). Sham animals were subjected to the surgical procedure except that the aneurysm clip was not applied and treated locally at the spinal cord T5-T8 level with vehicle (saline) or 3 (30 μg/mouse) 1 h and 6 h after surgical procedure. […]
Immunohistochemical localization of PAR, nitrotyrosine, FAS-ligand, Bax, Bcl-2 and iNOS. Twenty-four hours after SCI, nitrotyrosine, a specific marker of nitrosative stress, was measured by immunohistochemical analysis in the spinal cord sections to determine the localization of “peroxynitrite formation” and/or other nitrogen derivatives produced during SCI. […] Specific labeling was detected with a biotin-conjugated goat anti-rabbit IgG and avidin-biotin peroxidase complex ([…]). […]

[4] abbreviates: 30 μg in sponge, 3 days, Swiss mice.

With `CCCCCCCCCCCCCCCC(=O)NCCO` [PEA, N-palmitoylethanolamine, reference compound], in experiment [1] (PEA 50 μg, PPAR-α-null mice), the “number of infiltrating cells and edema in PPAR-α-null animals” value is reported as “had no effect”. Further, in experiment [1] (PEA 0.1-50 μg in sponge, 3 days, wild-type mice), the “number of infiltrating cells” value is “dose-dependently reduced”. Besides, in experiment [1] (PEA in sponge, wild-type mice, data not shown), the edema entry was “dose-dependently reduced”.

`NC(=O)c1cccc(-c2cccc(OC(=O)NC3CCCCC3)c2)c1` [URB597, reference compound]: the anti-inflammatory effect entry in experiment [1] (30 μg in sponge, 3 days) was “no anti-inflammatory effect”.

For the molecule `O=C(CCc1ccccc1)N[C@H]1COC1=O` [URB783, (S)—N-(2-oxooxetan-3-yl)-3-phenylpropionamide], in experiment [1] (setting [4]), the “endogenous PEA levels” value was “restored PEA to basal levels” and the “number of infiltrating cells” value is on record as “significantly reduced”. Besides, the “anti-inflammatory effects in PPAR-α null mice” value in experiment [1] (PPAR-α null mice) is “absent”. Further, in experiment [1] (in sponge, data not shown), the exudates volume result is listed as “significantly reduced”. Moreover, the IC50 (as a rule, the concentration needed to halve the response being measured) in experiment [2] is 420 ± 20 nM. Besides, in experiment [3], the “expression of iNOS” value is recorded as “significant reduction”; the “other markers of inflammation and cell apoptosis (PAR, nitrotyrosine, Fas-ligand, Bax, Bcl-2, TUNEL)” value is “significant reduction”.

Consider `O=C(N[C@H]1COC1=O)c1ccc(-c2ccccc2)cc1` [URB894, (S)—N-(2-oxooxetan-3-yl)biphenyl-4-carboxamide], for which the IC50 in experiment [2] was 115 ± 13 nM.
